Results from the SangsterLogP compilation.

Conditions: pH 1.0

| SMILES | logD |
| --- | --- |
| O=C(O)c1cccc(Cl)c1 | 2.51 |
| Oc1cccc(Br)c1 | 2.59 |

Same assay, conditions: pH 13.0

| SMILES | logD |
| --- | --- |
| Cc1cccc(N)c1 | 1.49 |
| Nc1ccc(Cl)cc1 | 1.8 |
| Cc1ccccc1N | 1.44 |
| Nc1cccc([N+](=O)[O-])c1 | 1.43 |
| Nc1cccc(I)c1 | 2.86 |
| Nc1ccc(Br)cc1 | 2 |

Conditions: not given

| SMILES | logP |
| --- | --- |
| O=C(O)c1cccc(I)c1 | 3 |
| O=C(O)c1ccc(F)cc1 | 1.99 |
| Oc1ccc(I)cc1 | 2.82 |
